Data: patent US20100160391A1, “Substituted Aminopyridines as Fluorescent Reporters for Amide Hydrolases” (priority 2006, published 2010)

What was measured:
[1] = test system: amidases, human liver microsomes; assay: Specific activity, human liver microsomes; assay type: biochemical; details: pH 8.0, 37° C.; NM = not measurable at the same protein concentration as other substrates
Procedure: Comparison of the lowest detection limits of protein concentration of FAAH toward colorimetric and fluorescent substrates. In general, all assays were performed in 96-well styrene flat-bottom microtiter plates with a Spectra Max M2 spectrophotometer at 37° C. for […]. The total volume of each well was 201 μl consisting of 0.1 M sodium phosphate buffer (pH 8.0) (190 μl) containing 1% glycerol and 0.1% Triton-X 100, stock or diluted protein solution (10 μl), and the substrate solution (1 μl) in ethanol (final concentration 200 μM for 10, 11, 13 or 14) or in DMSO (final concentration 25 μM for 12, 15, or 16; 50 μM for 17). The lowest detection limits of microsomal fatty acid amide hydrolase (FAAH) by substrates were determined by the fact that the signal at 10 min after kinetic measurements are equal to or over three times the noise or basal line at 0 min. Colorimetric substrate (16) assays were performed in clear 96-well microtititer plates using an absorbance wavelength at 382 nm. The fluorescent substrates containing 5-amino-2-methoxypyridine (e.g., 10, 13) were measured at an excitation wavelength (302 nm), emission wavelength (396 nm), and auto cutoff wavelength (325 nm). Similarly, the fluorescent substrates containing 5-amino-2-methoxy-6-methylpyridine (e.g., 11, 14, and 17) were measured at an excitation wavelength (304 nm), emission wavelength (392 nm), and an auto cutoff wavelength of 325 nm. In addition, an excitation wavelength (366 nm), emission wavelength (496 nm), and auto cutoff wavelength (495 nm) were used for the substrates (e.g., 12 and 15) containing 7-amino-4-trifluoromethyl coumarin.
Specific activity determination. The assays for specific activities were performed as described above for the sensitivity assay. The specific activity presented is based on the following: 1) the signal after a 10 min enzymatic reaction was at least 3 fold the baseline signal at 0 min, and 2) the amount of hydrolyzed substrate during a 10 min period was less than 10% of the total amount of the substrate added. To correct for protein-induced fluorescence quenching, a standard curve of 5-amino-2-methoxypyridine (6) or 5-amino-2-methoxy-6-methylpyridine (8) was constructed in the presence of the same protein concentration used for the assay of that enzyme.

[2] = target: T1, fatty acid amide hydrolase (FAAH) (Homo sapiens, UniProt O00519); assay: Kinetic study of FAAH toward substrates; assay type: biochemical
T1 construct: made in house; host or cells: Trichoplusia ni High Five cells infected with recombinant baculovirus Ac-hFAAH; microsomal fraction
T1 sequence (O00519 1-579): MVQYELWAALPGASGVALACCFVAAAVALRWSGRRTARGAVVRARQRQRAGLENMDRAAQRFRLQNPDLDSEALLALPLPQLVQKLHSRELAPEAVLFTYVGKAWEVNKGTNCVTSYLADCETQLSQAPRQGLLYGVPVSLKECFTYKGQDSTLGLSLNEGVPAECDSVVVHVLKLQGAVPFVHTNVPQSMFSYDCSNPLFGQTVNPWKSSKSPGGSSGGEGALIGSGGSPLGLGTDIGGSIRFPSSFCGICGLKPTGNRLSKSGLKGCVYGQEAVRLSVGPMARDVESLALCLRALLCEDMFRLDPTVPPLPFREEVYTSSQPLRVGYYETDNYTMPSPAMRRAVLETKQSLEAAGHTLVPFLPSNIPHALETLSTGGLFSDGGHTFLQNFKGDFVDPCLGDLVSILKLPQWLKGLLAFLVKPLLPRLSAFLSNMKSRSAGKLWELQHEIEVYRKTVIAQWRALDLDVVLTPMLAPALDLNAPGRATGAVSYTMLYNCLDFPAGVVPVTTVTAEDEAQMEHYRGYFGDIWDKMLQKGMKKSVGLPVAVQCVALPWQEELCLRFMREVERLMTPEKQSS
Procedure: Preparation of recombinant human FAAH. Transgenic expression of the human FAAH in a baculovirus system was performed by following the method described in Nishi et al., Arch. Biochem. Biophys., 445:115-123 (2006). The cDNA encoding human FAAH (GenBank Accession No. NM_001441) was amplified by PCR using a human liver cDNA library (Invitrogen; Carlsbad, Calif.) as a template. The primer pair was 5′-[…]-3′ and 5′-[…]-3′. BglII and EcoRI endonuclease sites (underlined) were incorporated just upstream of the start codon and downstream of the stop codon of the coding sequence of FAAH, respectively. The PCR products were cloned into a pCR2.1 vector (Invitrogen) and the nucleotide sequence was verified by DNA sequencing. The cDNA fragments were then excised and directionally ligated to the BglII and EcoRI sites of the baculovirus transfer vector pAcUW21 (Lopez-Ferber et al., Baculovirus transfer vectors, in “Baculovirus Expression Protocols,” Richardson (Ed.), pp 25-63, Humana Press, Totowa, N.J., 1995). Recombinant baculoviruses harboring the human FAAH gene, Ac-hFAAH, were generated by co-transfection of Spodoptera frugiperda-derived Sf21 cells with the recombinant transfer vector plasmid and Bsu36I-cleaved BacPAK6 viral DNA (Clontech Laboratories; Mountain View, Calif.) as described in O'Reilly et al., Baculovirus Expression Vectors: A Laboratory Manual, Oxford University Press, New York, 1992. Trichoplusia ni-derived High Five cells (1×10^6 cells/ml) were inoculated with a high titer of Ac-hFAAH. At 72 hours post-infection, the infected cells were harvested by centrifugation at 2,000×g for 20 min at 4° C. and suspended in 50 mM Tris-HCl (pH 8.0) containing 150 mM NaCl, 1 mM EDTA, 1 μM pepstatin, 100 μM leupeptin, and 0.1 mg/ml aprotinin. The cell suspension was then homogenized using a Polytron homogenizer and centrifuged at 10,000×g for 20 min at 4° C. The microsomal fraction was collected by ultracentrifugation of the supernatant at 100,000×g for 60 min at 4° C. The pellet was resuspended in 20 mM Tris-HCl (pH 8.0) containing 10% (w/v) glycerol and 1% (w/v) Triton-X 100 and stored at −80° C. until use.
Kinetic study. The kinetic assays were also performed as described above for the sensitivity assay. Briefly, a total volume of 201 μl contained 0.1 M sodium phosphate buffer (pH 8.0) (190 μl) with 1% glycerol and 0.1% Triton-X 100, protein solution (10 μl), and substrate solution (1 μl). The protein content was 0.67 μg per well (201 μl). The concentration of substrate (13) in DMSO was 200, 100, 50, 25, 12.5, 6.25, 3.13, 1.56, or 0.78 μM. Similarly, the concentration of substrate (17) in DMSO was 100, 50, 25, 12.5, 6.25, 3.13, 1.56, 0.78, or 0.39 μM. Four replicates were applied for each concentration. Reported kinetic data (km and Vmax) were analyzed by the SigmaPlot Enzyme Kinetics software (2001) using the Michaelis-Menten equation for all concentrations.

[3] = pH 8.0, 37° C., 0.67 μg protein per well, Michaelis-Menten

Compound: CCCCCCCC(=O)Nc1ccc(OC)nc1 [Compound 13, N-(6-methoxypyridin-3-yl) octanamide]
- Specific activity, Human liver microsomes [1]: 0.46 ± 0.06 nmol/min/mg protein
- Selectivity ratio ([2]; Vmax/Km of substrate over that of oleamide (5.5 × 10^−2)): 74.5
- Km [2, 3]: 74.9 µM
- Vmax [2, 3]: 305 nmol/min/mg
- difference in Vmax between (13) and (17) ([2]; saturating substrate concentration): 8 fold
